In patent US7176313B2, “Anti acid-fast bacterial agent containing pyridonecarboxylic acids as active ingredient” (Daiichi Pharmaceutical Co., Ltd., priority 2000, dated 2007):

`COc1c(N2CCNC(C3CC3)C2)c(F)cc2c(=O)c(C(=O)O)cn([C@@H]3C[C@@H]3F)c12` (stereo partly drawn) [Compd. 24, 7-(3-Cyclopropylpiperazin-1-yl)-6-fluoro-1-[(1R,2S)-2-fluorocyclopropyl]-1,4-dihydro-8-methoxy-4-oxoquinoline-3-carboxylic acid] showed a melting point of 136 to 139 °C.
With `COc1c(N2CCN3CCC2C3)c(F)cc2c(=O)c(C(=O)O)cn([C@@H]3C[C@@H]3F)c12` (stereo partly drawn) [Compd. 28, 7-{1,4-Diazabicyclo[3.2.1]octan-4-yl}-6-fluoro-1-[(1R,2S)-2-fluorocyclopropyl]-1,4-dihydro-8-methoxy-4-oxoquinoline-3-carboxylic acid] the melting point was 195 to 198 °C (dec.).
Molecule `COc1c(N2CCNC(CF)C2)c(F)cc2c(=O)c(C(=O)O)cn([C@@H]3C[C@@H]3F)c12` (stereo partly drawn) [Compd. 19, 6-Fluoro-1-[(1R,2S)-2-fluorocyclopropyl]-7-(3-fluoromethylpiperazin-1-yl)-1,4-dihydro-8-methoxy-4-oxoquinoline-3-carboxylic acid] has a melting point of 153 to 156 °C.
Molecule `COCC1CN(c2c(F)cc3c(=O)c(C(=O)O)cn([C@@H]4C[C@@H]4F)c3c2OC)CCN1` (stereo partly drawn) [Compd. 21, 6-Fluoro-1-[(1R,2S)-2-fluorocyclopropyl]-1,4-dihydro-8-methoxy-7-(3-methoxymethylpiperazin-1-yl)-4-oxoquinoline-3-carboxylic acid] has a melting point of 92 to 95 °C.
